Drawing on patent US10975083B2, “Blood-brain barrier-penetrant dopamine-β-hydroxylase inhibitors” (BIAL—PORTELA & Cᵃ, S.A., priority 2016, dated 2021), this text covers remaining activity for 30 molecules.

The test deals with T1, DβH (Homo sapiens, UniProt P09172).
T1 construct: reaction mixture (total volume 500 μl) contained: cellular homogenate (75 μg total protein); host or cells: SK-N-SH cell homogenate
T1 sequence (P09172 1-617): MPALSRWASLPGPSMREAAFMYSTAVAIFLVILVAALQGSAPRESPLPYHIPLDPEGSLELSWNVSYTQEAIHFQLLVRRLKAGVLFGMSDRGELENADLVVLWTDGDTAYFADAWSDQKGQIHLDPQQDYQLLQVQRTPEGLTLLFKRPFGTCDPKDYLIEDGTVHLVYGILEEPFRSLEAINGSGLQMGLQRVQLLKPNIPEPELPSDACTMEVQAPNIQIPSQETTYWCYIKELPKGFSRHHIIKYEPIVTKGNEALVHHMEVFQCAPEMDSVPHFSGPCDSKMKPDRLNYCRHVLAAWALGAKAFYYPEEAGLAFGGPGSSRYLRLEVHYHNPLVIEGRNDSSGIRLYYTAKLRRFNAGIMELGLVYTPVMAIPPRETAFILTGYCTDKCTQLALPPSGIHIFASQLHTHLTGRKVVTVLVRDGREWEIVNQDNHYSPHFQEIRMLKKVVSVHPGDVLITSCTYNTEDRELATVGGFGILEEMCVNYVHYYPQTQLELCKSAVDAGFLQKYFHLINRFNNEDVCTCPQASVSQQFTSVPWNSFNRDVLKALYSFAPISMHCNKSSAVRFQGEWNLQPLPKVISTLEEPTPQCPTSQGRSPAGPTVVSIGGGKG
As to the kind of experiment: DβH inhibition cell assay (SK-N-SH cellular homogenates, tyramine to octopamine). The test is classed as biochemical. Conditions: SK-N-SH cell homogenate; for remaining activity at 0.1 µM: inhibitor 0.1 μM, read-out: DβH activity in % of Ctrl (0.1 μM); for remaining activity at 1 µM: inhibitor 1 μM, read-out: DβH activity in % of Ctrl (1 μM); for remaining activity at 10 µM: inhibitor 10 μM, read-out: DβH activity in % of Ctrl (10 μM). Here is the method: The ability of a compound to inhibit DβH activity may be assessed using the following cell assay. […] . […] Fetal bovine serum was removed from cells for 4 h prior to collection.
For the preparation of cellular homogenates, media was removed and cell monolayers were washed with 50 mM Tris-HCl pH 7.4. Cells were subsequently scrapped off the flasks and were resuspended in 50 mM Tris pH 7.4. Cell suspensions were homogenized with SilentCrusher M (Heidolph) for a short stroke and resultant homogenates were aliquoted and stored frozen at −80° C.
Total protein was quantified in cellular homogenates with BioRad Protein Assay (BioRad) using a standard curve of BSA (50-250 μg/mL).
DβH activity was measured by a modification of the method of Nagatsu and Udenfriend (Nagatsu, T. and S. Udenfriend: “Photometric assay of dopamine-hydroxylase activity in human blood.” Clin. Chem. 18(9): 980-3, 1972) which is based on the enzymatic hydroxylation of tyramine into octopamine. The octopamine formed is subsequently oxidized to p-hydroxybenzaldehyde and measured by spectrophotometry. In brief, reaction mixture (total volume 500 μl) contained: cellular homogenate (75 μg total protein) sodium acetate pH 5.0 (200 mM), NEM (30 mM), CuSO4 (5 μM), catalase aqueous solution (0.5 mg/mL), pargyline-HCl (1 mM), sodium fumarate (10 mM), ascorbic acid (10 mM), inhibitor or vehicle and tyramine (25 mM). After a 10 min pre-incubation period at 37° C., the reaction was initiated by the addition of tyramine. Reaction was carried out for 45 min at 37° C. before termination with 50 μl PCA (2 M).
Samples were centrifuged for 3 min at 16100 g and supernatants were subjected to solid phase extraction. Solid phase extraction was performed using either SPE cartridges ISOLUTE SCX-3 (100 mg, 1 mL) or SPE 2 mL fixed 96 well plates ISOLUTE SCX-3 (100 mg) previously equilibrated with MilliQ water. Columns/plates were centrifuged at 150 g for 2 min. Eluate was discarded and matrix was washed with 1 mL of MilliQ water after which octopamine was eluted with 2×0.25 mL ammonium hydroxide (4 M). The oxidation of octopamine to p-hydroxybenzaldehyde was carried out for 6 min with 100 μl sodium periodate (2%) and was stopped with 100 μl sodium metabisulfite (10%). Absorbance was measured at 330 nm on a Spectramax microplate reader (Molecular Devices, Sunnyvale, Calif.). All enzymatic reactions were performed in duplicate. Results are reported in the table below as activity in % of control at the inhibitor concentration tested.

Structures are written as SMILES.

For `NC(=S)N1CCC(c2ccc(F)cc2)C1` (stereo not drawn) [Example 3, 3-(4-Fluorophenyl)pyrrolidine-1-carbothioamide], the remaining activity at 0.1 µM was 89%, the remaining activity at 1 µM is 53.8% and the remaining activity at 10 µM was determined as 3.9%.
Regarding `NC(=S)N1CCCC(c2ccccc2)C1` (stereo not drawn) [Example 4, 3-phenylpiperidine-1-carbothioamide], the remaining activity at 10 µM was found to be 18.6%.
Consider `NC(=S)N1CCC(c2ccc(F)cc2F)C1` (stereo not drawn) [Example 5, 3-(2,4-difluorophenyl)pyrrolidine-1-carbothioamide], for which the remaining activity at 0.1 µM amounted to 83.2% and the remaining activity at 10 µM came to 0.8%.
Regarding `NC(=S)N1CC[C@@H](c2ccccc2)C1` [Example 6, (S)-3-phenylpyrrolidine-1-carbothioamide], the remaining activity at 0.1 µM is 97.6%, the remaining activity at 1 µM was 50.3% and the remaining activity at 10 µM came to 3.3%.
Regarding `NC(=S)N1CC[C@H](c2ccccc2)C1` [Example 11, (R)-3-phenylpyrrolidine-1-carbothioamide], the remaining activity at 0.1 µM came to 86.4%, the remaining activity at 1 µM worked out at 31.4% and the remaining activity at 10 µM was found to be 1.5%.
Take `Cc1ccccc1C1CCN(C(N)=S)C1` (stereo not drawn) [Example 13, 3-o-tolylpyrrolidine-1-carbothioamide]: the remaining activity at 10 µM was 7.2%.
`Cc1cccc(C2CCN(C(N)=S)C2)c1` (stereo not drawn) [Example 14, 3-m-tolylpyrrolidine-1-carbothioamide]: the remaining activity at 10 µM is 13.1%.
As to `NC(=S)N1CCC(c2ccoc2)C1` (stereo not drawn) [Example 16, 3-(furan-3-yl)pyrrolidine-1-carbothioamide], the remaining activity at 1 µM amounted to 55.5%.
In the case of `NC(=S)N1CCC(c2cc(F)ccc2F)C1` (stereo not drawn) [Example 18, 3-(2,5-difluorophenyl)pyrrolidine-1-carbothioamide], the remaining activity at 0.1 µM stood at 57% and the remaining activity at 1 µM was determined as 6.4%.
As for `NC(=S)N1CCC(c2cc(F)c(F)cc2F)C1` (stereo not drawn) [Example 19, 3-(2,4,5-trifluorophenyl)pyrrolidine-1-carbothioamide], the remaining activity at 1 µM worked out at 33.4%.
As for `NC(=S)N1CCC(c2ccc(F)c(F)c2)C1` (stereo not drawn) [Example 20, 3-(3,4-difluorophenyl)pyrrolidine-1-carbothioamide], the remaining activity at 1 µM came out at 44.8%.
The same measure, in the same setting: in the case of `NC(=S)N1CC[C@@H](c2c(F)cc(F)cc2F)C1` [Example 21, (S)-3-(2,4,6-trifluorophenyl)pyrrolidine-1-carbothioamide] it was 17.5%; in that of `NC(=S)N1CCC(c2ccc(F)c(F)c2F)C1` (stereo not drawn) [Example 22, 3-(2,3,4-trifluorophenyl)pyrrolidine-1-carbothioamide], 27.4%.
Take `NC(=S)N1C[C@@H]2C[C@]2(c2cccs2)C1` [Example 28, (1R,5R)-1-(thiophen-2-yl)-3-azabicyclo[3.1.0]hexane-3-carbothioamide]: the remaining activity at 0.1 µM was determined as 0.2% and the remaining activity at 1 µM came to 3.3%.
In the case of `NC(=S)N1CCC(c2c(F)c(F)c(F)c(F)c2F)C1` (stereo not drawn) [Example 29, 3-(perfluorophenyl)pyrrolidine-1-carbothioamide], the remaining activity at 0.1 µM turned out to be 26.9%.
In the case of `CNC(=S)N1CCC(c2c(F)c(F)cc(F)c2F)C1` (stereo not drawn) [Example 33, N-methyl-3-(2,3,5,6-tetrafluorophenyl)pyrrolidine-1-carbothioamide], the remaining activity at 0.1 µM was 11.8% and the remaining activity at 1 µM came out at 1%.
Consider `NC(=S)N1C[C@H]2C[C@@]2(c2cc(F)cc(F)c2)C1` [Example 35, (1R,5S)-1-(3,5-difluorophenyl)-3-azabicyclo[3.1.0]hexane-3-carbothioamide], for which the remaining activity at 0.1 µM was 95%, the remaining activity at 1 µM stood at 34.3% and the remaining activity at 10 µM amounted to 0%.
For the molecule `NC(=S)N1C[C@@H]2C[C@]2(c2cc(F)cc(F)c2)C1` [Example 36, (1S,5R)-1-(3,5-difluorophenyl)-3-azabicyclo[3.1.0]hexane-3-carbothioamide], the remaining activity at 0.1 µM came to 4% and the remaining activity at 1 µM worked out at 0%.
On the same counts, the results for `CCCNC(=S)N1C[C@@H]2C[C@]2(c2cc(F)cc(F)c2)C1` [Example 39, (1S,5R)-1-(3,5-Difluorophenyl)-N-propyl-3-azabicyclo[3.1.0]hexane-3-carbothioamide] are 40.4% and 0.3%.
Consider `Fc1ccc(F)c(C23CC2CN(C(=S)NCCS)C3)c1` (stereo not drawn) [Example 40, 1-(2,5-difluorophenyl)-N-(2-mercaptoethyl)-3-azabicyclo[3.1.0]hexane-3-carbothioamide], for which the remaining activity at 0.1 µM was determined as 87.9%.
For the molecule `CNC(=S)N1C[C@@]2(c3cc(F)cc(F)c3)C[C@H]2C1=O` [Example 41, (1S,5R)-1-(3,5-difluorophenyl)-N-methyl-4-oxo-3-azabicyclo[3.1.0]hexane-3-carbothioamide], the remaining activity at 0.1 µM is 29.8% and the remaining activity at 1 µM was 0%.
For the molecule `S=C1NCC2CC(c3ccccc3)CN12` (stereo not drawn) [Example 44, 6-Phenyltetrahydro-1H-pyrrolo[1,2-c]imidazole-3(2H)-thione], the remaining activity at 1 µM came out at 70.9% and the remaining activity at 10 µM amounted to 13.7%.
Turning to `NNC(=S)N1CC2CC2(c2cc(F)cc(F)c2)C1` (stereo not drawn) [Example 45, 1-(3,5-Difluorophenyl)-3-azabicyclo[3.1.0]hexane-3-carbothiohydrazide], the remaining activity at 1 µM stood at 29.1%.
On the same count and under the same terms, under `CN(C)C(=S)N1CC2CC2(c2cc(F)cc(F)c2)C1` (stereo not drawn) [Example 46, 1-(3,5-Difluorophenyl)-N,N-dimethyl-3-azabicyclo[3.1.0]hexane-3-carbothioamide] stands 31.6%; under `N#CCNC(=S)N1CC2CC2(c2cc(F)ccc2F)C1` (stereo not drawn) [Example 47, N-(cyanomethyl)-1-(2,5-difluorophenyl)-3-azabicyclo[3.1.0]hexane-3-carbothioamide], 45.3%; under `CNC(=S)N1C=CC(c2cc(F)cc(F)c2)C1` (stereo not drawn) [Example 48, 3-(3,5-Difluorophenyl)-N-methyl-2,3-dihydro-1H-pyrrole-1-carbothioamide], 43%.
Still for that read-out and setting: in the case of `Fc1cc(F)cc([C@]23C[C@H]2c2n[nH]c(=S)n2C3)c1` [Example 60, (5aS,6aR)-5a-(3,5-difluorophenyl)-5,5a,6,6a-tetrahydrocyclopropa[3,4]pyrrolo[2,1-c][1,2,4]triazole-3(2H)-thione] it was 60.2%.
Consider `Fc1cc(F)c(F)c([C@@H]2Cc3c[nH]c(=S)n3C2)c1F` [Example 61, (S)-6-(2,3,5,6-tetrafluorophenyl)-6,7-dihydro-2H-pyrrolo[1,2-c]imidazole-3(5H)-thione], for which the remaining activity at 0.1 µM turned out to be 52.2% and the remaining activity at 1 µM was found to be 8.4%.
The corresponding values for `Fc1cc(F)c(F)c([C@H]2Cc3c[nH]c(=S)n3C2)c1F` [Example 62, (R)-6-(2,3,5,6-tetrafluorophenyl)-6,7-dihydro-2H-pyrrolo[1,2-c]imidazole-3(5H)-thione] are 43.1% and 9.8%.
Consider `Fc1cc(F)c(F)c([C@]23C[C@H]2c2c[nH]c(=S)n2C3)c1` [Example 63, (5aS,6aR)-5a-(2,3,5-trifluorophenyl)-5,5a,6,6a-tetrahydrocyclopropa[3,4]pyrrolo[1,2-c]imidazole-3 (2H)-thione], for which the remaining activity at 1 µM was determined as 13.9%.
